# According to BindingDB's records for patent US20250026766 (Beigene, 2025):
# Target: T1, DNA polymerase theta [1-894] (UniProt O75417)
# T1 construct: 1-894
# Experiment: Biochemical Pol Theta (1-894) ATPase IC50 Assay
# Protocol: The inhibition activities testing for the compound disclosed herein were carried out at room temperature in assay buffer containing 40 mM Tris pH 7.5, 20 mM MgCl2, 1 mM DTT, 0.01% BSA and 0.05% Tween-20. […] After 1 hour reaction, 5 μL ADP-Glo reagent (Promga V9102) was added and incubated for 40 minutes. 10 μL Kinase Detection reagent was added and incubated for 40 minutes. Luminescence was measured on a microplate reader (PHERAstar FSX, BMG labtech). The IC50 values were calculated based on inhibition of enzyme activity in the presence of increasing concentrations of compounds.
# T1 sequence (O75417 1-894): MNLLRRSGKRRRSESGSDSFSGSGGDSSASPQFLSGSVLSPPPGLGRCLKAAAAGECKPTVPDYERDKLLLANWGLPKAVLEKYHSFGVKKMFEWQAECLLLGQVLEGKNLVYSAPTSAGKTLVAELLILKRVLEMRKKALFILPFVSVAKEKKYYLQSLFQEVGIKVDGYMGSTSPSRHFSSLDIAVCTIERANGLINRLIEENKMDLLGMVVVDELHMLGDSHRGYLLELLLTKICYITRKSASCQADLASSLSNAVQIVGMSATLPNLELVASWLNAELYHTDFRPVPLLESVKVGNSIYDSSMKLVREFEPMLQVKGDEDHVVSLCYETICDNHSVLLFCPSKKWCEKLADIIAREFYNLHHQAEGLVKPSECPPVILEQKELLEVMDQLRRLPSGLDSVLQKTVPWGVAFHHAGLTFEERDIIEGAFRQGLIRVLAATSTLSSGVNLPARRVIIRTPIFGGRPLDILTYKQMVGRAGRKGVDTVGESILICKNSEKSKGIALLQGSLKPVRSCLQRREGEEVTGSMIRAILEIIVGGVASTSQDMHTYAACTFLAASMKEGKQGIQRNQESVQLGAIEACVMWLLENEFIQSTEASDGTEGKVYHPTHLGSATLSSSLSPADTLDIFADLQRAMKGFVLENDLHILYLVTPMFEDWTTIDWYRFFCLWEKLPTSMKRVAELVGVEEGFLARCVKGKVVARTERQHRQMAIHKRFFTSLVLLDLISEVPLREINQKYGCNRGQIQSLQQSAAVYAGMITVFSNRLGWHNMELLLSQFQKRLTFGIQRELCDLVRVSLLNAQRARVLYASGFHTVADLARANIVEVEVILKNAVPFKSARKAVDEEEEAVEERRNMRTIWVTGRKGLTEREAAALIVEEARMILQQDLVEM
row,IC50 [nM],Compound
1,22,"COc1ccccc1-c1cnncc1C(=O)Nc1nc2ccc(-c3ccc(Cl)cc3OC(C)C)nc2s1 [US20250026766, Example 143]"
2,1560,"Cc1ccc(-c2ccc3nc(NC(=O)c4ccc(C#N)nc4N4CCOCC4)sc3n2)cc1 [US20250026766, Example 4]"
